# Data: US10532075B2, “Use of a particular extract of propolis for combating the side effects of chemotherapy” (POLLENERGIE, priority 2014, dated 2020)
# Columns and labels:
# [1] = test system: white blood cells; assay: in-vivo side effects of chemotherapy: change in white blood cells
# Excerpt: (§1) Wistar rats of approximately 200 g were used during this in-vivo experiment, at a rate of 8 animals per group. […] The animals are sacrificed 21 days after the injection of the chemotherapy agent. The weight and the different parameters of the blood formula will be tracked in these animals on days D+1, D+6 and D+14 and D+21 post-chemotherapy injection. The contents of endogenic antioxidants (glutathione=GSH) and the hepatocytic lipid peroxidation (MDA) levels will be evaluated on D+21.
# [2] = test system: plasmatic glutathione (GSH); assay: in-vivo side effects of chemotherapy: plasmatic glutathione
# Excerpt: as §1
# (§2) The chemotherapy agents also have an impact on the primary intracellular antioxidant: glutathione (GSH) and on oxidative damage through the formation of diene conjugates, which is a reflection of the lipid peroxidation of the cellular membranes (the MDA) on the plasmatic level. These two measurements are complementary since normally a correct level of GSH makes it possible to maintain a relatively low level of MDA.
# [3] = in-vivo side effects of chemotherapy: change in weight of the animals
# Excerpt: as §1
# [4] = test system: red blood cells; assay: in-vivo side effects of chemotherapy: change in red blood cells
# Excerpt: as §1
# [5] = test system: plasma MDA; assay: in-vivo side effects of chemotherapy: plasma MDA
# Excerpt: as §1, §2
# [6] = test system: plasmatic creatinine; assay: in-vivo side effects of chemotherapy: plasmatic creatinine
# Excerpt: as §1
# [7] = test system: Primary hepatocytes of rats; assay: reversion of chemotherapy agent toxicity: hepatocyte cytolysis after propolis pretreatment, then tamoxifen; type: cell-based; details: tamoxifen alone
# Description: Primary hepatocytes of rats were sampled and inoculated into a 96-well plate. 24 hours after the inoculation, the hepatocytes were treated with different doses of propolis (Example 1) for 24 hours.
# The percentage of hepatic cells that are cytolyzed after a pretreatment with different concentrations of propolis and then subjected to a cytotoxic concentration of tamoxifen (25 μM) was evaluated and presented in the table below: […]
# [8] = chemotherapy agent alone, D + 1 post-injection
# [9] = chemotherapy agent alone, D + 6 post-injection
# [10] = chemotherapy agent alone, D + 14 post-injection
# [11] = chemotherapy agent alone, D + 21 post-injection
# [12] = chemotherapy agent alone, D − 5 (before treatment)
# [13] = chemotherapy agent alone, 21st day
# [14] = chemotherapy agent alone, 21st day post-injection
structure (smiles),measurement,setting,value
"O=P1(N(CCCl)CCCl)NCCCO1 (stereo not shown) [Cyclophosphamide, cyclophosphamide]",white blood cells: Variation between D − 5 and D + 21,[1]; chemotherapy agent alone,−49%
same,white blood cells,[1]; [8],3.33
same,white blood cells,[1]; [9],2.96
same,white blood cells,[1]; [10],10.20
same,white blood cells,[1]; [11],3.19
same,white blood cells,[1]; [12],6.30
same,plasmatic glutathione: Variation between D − 5 and D + 21,[2]; chemotherapy agent alone,−10%
same,effect on the level of plasma GSH (in words),[2]; [13],a little less distinct
same,plasmatic glutathione,[2]; [11],23.81
same,plasmatic glutathione,[2]; [12],26.39
same,weight: Variation between D + 1 and D + 21,[3]; chemotherapy agent alone,−14.9
same,weight of the animals,[3]; [8],167.2
same,weight of the animals,[3]; [9],157.7
same,weight of the animals,[3]; [10],164
same,weight of the animals,[3]; [11],152.3
same,weight of the animals,[3]; [12],160.4
same,red blood cells: Variation between D + 1 and D + 21,[4]; chemotherapy agent alone,−46%
same,reduction in red blood cells,[4]; [14],45%
same,red blood cells,[4]; [8],5.94
same,red blood cells,[4]; [9],4.23
same,red blood cells,[4]; [10],3.80
same,red blood cells,[4]; [11],3.22
same,red blood cells,[4]; [12],6.51
same,plasma MDA: Variation between D − 5 and D + 21,[5]; chemotherapy agent alone,+48%
same,plasma MDA,[5]; [11],79.10
same,plasma MDA,[5]; [12],43.78
same,plasmatic creatinine: Variation between D − 5 and D + 21,[6]; chemotherapy agent alone,+59%
same,plasmatic creatinine,[6]; [8],7.25
same,plasmatic creatinine,[6]; [11],10.14
same,plasmatic creatinine,[6]; [12],6.38
"COc1cccc2c1C(=O)c1c(O)c3c(c(O)c1C2=O)C[C@@](O)(C(=O)CO)C[C@@H]3O[C@H]1C[C@H](N)[C@@H](O)[C@H](C)O1 [Epirubicin, epirubicin]",white blood cells,"[1]; rat, in vivo",6.79
same,white blood cells: Variation between D − 5 and D + 21,"[1]; rat, in vivo",−46%
same,effect on the level of plasma GSH (in words),"[2]; rat, in vivo",very distinct significant decrease in the level of plasma GSH
same,plasmatic glutathione,"[2]; rat, in vivo",23.86
same,plasmatic glutathione: Variation between D − 5 and D + 21,"[2]; rat, in vivo",−46%
same,weight of the animals,"[3]; rat, in vivo",150.2
same,weight: Variation between D + 1 and D + 21,"[3]; rat, in vivo",−0.9
same,red blood cells,"[4]; rat, in vivo",6.73 10^6/µL
same,red blood cells: Variation between D + 1 and D + 21,"[4]; rat, in vivo",−48%
same,reduction in red blood cells,"[4]; rat, in vivo",48%
same,plasma MDA,"[5]; rat, in vivo",46.61
same,plasma MDA: Variation between D − 5 and D + 21,"[5]; rat, in vivo",+83%
same,plasmatic creatinine: Variation between D − 5 and D + 21,"[6]; rat, in vivo",+60%
"O=c1[nH]cc(F)c(=O)[nH]1 [Powder 5-FU, 5-FU]",white blood cells: Variation between D − 5 and D + 21,[1]; chemotherapy agent alone,−40%
same,white blood cells,[1]; [8],3.91
same,white blood cells,[1]; [9],2.74
same,white blood cells,[1]; [10],10.82
same,white blood cells,[1]; [11],3.86
same,white blood cells,[1]; [12],6.49
same,plasmatic glutathione: Variation between D − 5 and D + 21,[2]; chemotherapy agent alone,−20%
same,effect on the level of plasma GSH (in words),[2]; [13],very distinct significant decrease in the level of plasma GSH
same,plasmatic glutathione,[2]; [11],17.65
same,plasmatic glutathione,[2]; [12],22.14
same,weight: Variation between D + 1 and D + 21,[3]; chemotherapy agent alone,−13.9
same,weight of the animals,[3]; [8],157.6
same,weight of the animals,[3]; [9],153.7
same,weight of the animals,[3]; [10],147.9
same,weight of the animals,[3]; [11],143.7
same,weight of the animals,[3]; [12],153.5
same,red blood cells: Variation between D + 1 and D + 21,[4]; chemotherapy agent alone,−55%
same,reduction in red blood cells,[4]; [14],55%
same,red blood cells,[4]; [8],6.56
same,red blood cells,[4]; [9],4.19
same,red blood cells,[4]; [10],3.05
same,red blood cells,[4]; [11],2.94
same,red blood cells,[4]; [12],6.51
same,plasma MDA: Variation between D − 5 and D + 21,[5]; chemotherapy agent alone,+41%
same,plasma MDA,[5]; [11],62.85
same,plasma MDA,[5]; [12],44.49
same,plasmatic creatinine: Variation between D − 5 and D + 21,[6]; chemotherapy agent alone,+41%
same,plasmatic creatinine,[6]; [8],9
same,plasmatic creatinine,[6]; [11],10.19
same,plasmatic creatinine,[6]; [12],7.25
"CC/C(=C(\c1ccccc1)c1ccc(OCCN(C)C)cc1)c1ccccc1 [Tamoxifen, tamoxifen]",cytolysis of hepatocytes (in words),[7],dose-dependent cytolysis of hepatocytes
"CC(=O)O[C@@]12CO[C@@H]1C[C@H](O)[C@@]1(C)C(=O)[C@H](O)C3=C(C)[C@@H](OC(=O)[C@H](O)[C@@H](NC(=O)OC(C)(C)C)c4ccccc4)C[C@@](O)([C@@H](OC(=O)c4ccccc4)[C@H]21)C3(C)C [Taxotere, taxotere]",white blood cells,"[1]; rat, in vivo",6.44
same,white blood cells: Variation between D − 5 and D + 21,"[1]; rat, in vivo",−51%
same,effect on the level of plasma GSH (in words),"[2]; rat, in vivo",very distinct significant decrease in the level of plasma GSH
same,plasmatic glutathione,"[2]; rat, in vivo",22.88
same,plasmatic glutathione: Variation between D − 5 and D + 21,"[2]; rat, in vivo",−26%
same,weight of the animals,"[3]; rat, in vivo",151.6
same,weight: Variation between D + 1 and D + 21,"[3]; rat, in vivo",+18.6
same,red blood cells,"[4]; rat, in vivo",6.39 10^6/µL
same,red blood cells: Variation between D + 1 and D + 21,"[4]; rat, in vivo",−52%
same,reduction in red blood cells,"[4]; rat, in vivo",52%
same,plasma MDA,"[5]; rat, in vivo",45.90
same,plasma MDA: Variation between D − 5 and D + 21,"[5]; rat, in vivo",+88%
same,plasmatic creatinine,"[6]; rat, in vivo",7.60
same,plasmatic creatinine: Variation between D − 5 and D + 21,"[6]; rat, in vivo",+52%
